Values after ≈ are worked out from the molar mass of the structure shown. Where a name gives a salt, the structure may show the parent alone. Read-outs that look alike come from different tables or passages of the source.
How the values were obtained:
Format in all cases: cell-based
[1] = test system: Pseudomonas aeruginosa ATCC 10145; test: MIC by broth microdilution, Pseudomonas aeruginosa; conditions: ATCC10145, Table 2, internal code 4, approx. 10^4 cfu/ml, Iso-Sensitest broth, 37° C., 20-24 h, air
[2] = test system: Bacteroides fragiles ATCC 9689; test: MIC by broth microdilution, Bacteroides fragilis; conditions: ATCC9689, Table 2, internal code 1010, approx. 10^4 cfu/ml, Wilkins-Chalgren broth, 37° C., 48 h, N2-CO2-H2 (80:10:10)
[3] = test system: Enterococcus faecalis ATCC 7080; test: MIC by broth microdilution, Enterococcus faecalis; conditions: ATCC7080
[4] = test system: Staphilococcus epidermidis ATCC 12228; test: MIC by broth microdilution, Staphylococcus epidermidis; conditions: ATCC12228
[5] = test system: Staphilococcus haemolyticus (clin. isolate); test: MIC by broth microdilution, Staphylococcus haemolyticus
[6] = test system: Escherichia coli SKF 12140; test: MIC by broth microdilution, Escherichia coli
[7] = test system: Proteus vulgaris X19H ATCC 881; test: MIC by broth microdilution, Proteus vulgaris
[8] = test system: Streptococcus pneumonieae UC 41; test: MIC by broth microdilution, Streptococcus pneumoniae
[9] = test system: Staphilococcus aureus Tour; test: MIC by broth microdilution, Staphylococcus aureus Tour; conditions: Iso-Sensitest broth, 37° C., 20-24 h, air
[10] = test system: Propionibacterium acnes ATCC 6919; test: MIC by broth microdilution, Propionibacterium acnes; conditions: Cutibacterium acnes
[11] = test system: Streptococcus pyogenes C 203; test: MIC by broth microdilution, Streptococcus pyogenes; conditions: C203
[12] = test system: Tricophyton mentagrophytes; test: MIC by broth microdilution, Trichophyton mentagrophytes; conditions: 72 h
[13] = test system: Clostridium perfringens ISS 30543; test: microbe, parasite or virus in culture; conditions: ISS30543, 48 h
[14] = test system: Candida albicans SKF 2270; test: MIC by broth microdilution, Candida albicans; conditions: Table 2; internal code 145; approx. 10^4 cfu/ml; buffered Yeast Nitrogen Base broth + glucose + L-asparagine; 37° C., 20-24 h, air
[15] = Table 2, internal code 165, + 30% bovine serum
[16] = Table 2, internal code 165, inoculum 10^6 cfu/ml
[17] = Table 2, internal code 165, inoculum approx. 10^4 cfu/ml
[18] = ATCC6919, Table 2, internal code 1014, approx. 10^4 cfu/ml, Wilkins-Chalgren broth, 37° C., 48 h, N2-CO2-H2 (80:10:10), read-out: MIC
[19] = Table 2, internal code 634, 1% (v/v) suspension of mycelia and conidia, YM broth, 30° C., air, read-out: MIC
[20] = Table 2, internal code 165, + 30% bovine serum, read-out: MIC

Row | SMILES | MIC [1] [µg/mL] | MIC [2] [µg/mL] | MIC [3] [µg/mL] | MIC [4] [µg/mL] | MIC [5] [µg/mL] | MIC ([6]; SKF12140) [µg/mL] | MIC ([7]; ATCC881) [µg/mL] | MIC ([8]; UC41) [µg/mL] | MIC [9, 15] [µg/mL] | MIC [9, 16] [µg/mL] | MIC [9, 17] [µg/mL] | MIC [10, 18] [µg/mL] | MIC [11] [µg/mL] | MIC [12] [µg/mL] | MIC [13] [µg/mL] | MIC ([10]; ATCC6919, 48 h) [µg/mL] | further results
1 | COC(=O)c1cc2cc3c(c(O)c2c(=O)o1)OC1(Cc2c(O)c4c(c(O)c2O1)C(=O)C(N)=CC4=O)CC3O (centres unmarked) [Example 25, 7'-Aminopurpuromycin] | > 128 | 0.06 (≈ 0.115 µM) | 0.06 (≈ 0.115 µM) | 0.03 (≈ 0.0573 µM) | 0.06 (≈ 0.115 µM) | > 128 | > 128 | 0.016 (≈ 0.0306 µM) | 1 | 0.06 (≈ 0.115 µM) | 0.03 (≈ 0.0573 µM) | 0.008 (≈ 0.0153 µM) | 0.03 (≈ 0.0573 µM) |  |  |  | 
2 | COC(=O)c1cc2cc3c(c(O)c2c(=O)o1)OC1(Cc2c(O)c4c(c(O)c2O1)C(=O)C(NCCO)=CC4=O)CC3O (centres unmarked) [Example 21, 7'-(2-hydroxyethylen)-amino purpuromycin] | ≥ 128 | 0.13 (≈ 0.229 µM) | 0.06 (≈ 0.106 µM) | 0.06 (≈ 0.106 µM) | 0.13 (≈ 0.229 µM) | ≥ 128 | ≥ 128 | 0.016 (≈ 0.0282 µM) | 1 | 0.13 (≈ 0.229 µM) | 0.06 (≈ 0.106 µM) | 0.004 (≈ 0.00705 µM) | 0.03 (≈ 0.0529 µM) | ≥ 128 |  |  | 
3 | CNC1=CC(=O)c2c(O)c3c(c(O)c2C1=O)OC1(CCc2cc4cc(C(=O)OC)oc(=O)c4c(O)c2O1)C3 (centres unmarked) [Example 32, 7'-methylamino γ-rubromycin] | > 128 | 0.06 (≈ 0.115 µM) | 0.03 (≈ 0.0575 µM) | 0.016 (≈ 0.0307 µM) | 0.016 (≈ 0.0307 µM) | > 128 | > 128 | 0.016 (≈ 0.0307 µM) | 0.25 | 0.03 (≈ 0.0575 µM) | 0.016 (≈ 0.0307 µM) | 0.004 (≈ 0.00767 µM) | 0.03 (≈ 0.0575 µM) | > 128 | 0.016 (≈ 0.0307 µM) |  | 
4 | CCNC1=CC(=O)c2c(O)c3c(c(O)c2C1=O)OC1(C3)CC(O)c2cc3cc(C(=O)OC)oc(=O)c3c(O)c2O1 (centres unmarked) [Example 10, 7'-ethylamino purpuromycin] | > 128 | 0.06 (≈ 0.109 µM) | 0.06 (≈ 0.109 µM) | 0.06 (≈ 0.109 µM) | 0.06 (≈ 0.109 µM) | > 128 | > 128 | 0.06 (≈ 0.109 µM) |  | 0.06 (≈ 0.109 µM) | 0.06 (≈ 0.109 µM) |  | 0.06 (≈ 0.109 µM) |  |  | 0.06 (≈ 0.109 µM) | MIC [12, 19]: ≤ 0.13 µg/mL; MIC [9, 20]: 1 µg/mL
5 | COC(=O)c1cc2cc3c(c(O)c2c(=O)o1)OC1(Cc2c(O)c4c(c(O)c2O1)C(=O)C(NCCN(C)C)=CC4=O)CC3O (centres unmarked) [Example 6, 7'-(2-dimethylaminoethylen)amino purpuromycin hydrochloride] | 128 | 0.5 |  |  | 0.5 |  | 128 |  |  |  |  | 0.06 |  | 128 |  |  | MIC ([6]; SKF12140, Table 2, internal code 47, approx. 10^4 cfu/ml, Iso-Sensitest broth, 37° C., 20-24 h, air, read-out: MIC): 16 µg/mL; MIC ([8]; UC41, Table 2, internal code 44, approx. 10^4 cfu/ml, Todd Hewitt broth, 37° C., 20-24 h, air, read-out: MIC): 0.06 µg/mL; MIC [9, 20]: 0.25 µg/mL; MIC [14]: 64 µg/mL
6 | COC(=O)c1cc2cc3c(c(O)c2c(=O)o1)OC1(Cc2c(O)c4c(c(O)c2O1)C(=O)C(NCC#N)=CC4=O)CC3O (centres unmarked) [Example 16, 7'-(cyanomethylen)amino purpuromycin] | > 128 | 0.5 (≈ 0.889 µM) | 0.13 (≈ 0.231 µM) | 0.13 (≈ 0.231 µM) | 0.13 (≈ 0.231 µM) | > 128 | > 128 | 0.03 (≈ 0.0533 µM) | 2 | 0.13 (≈ 0.231 µM) | 0.13 (≈ 0.231 µM) |  | 0.13 (≈ 0.231 µM) | 128 (≈ 228 µM) | 0.13 (≈ 0.231 µM) | 0.016 (≈ 0.0284 µM) | 
7 | COC(=O)c1cc2cc3c(c(O)c2c(=O)o1)OC1(Cc2c(O)c4c(c(O)c2O1)C(=O)C(NCCNC(=O)OC(C)(C)C)=CC4=O)CC3O (centres unmarked) [Example 18, 7'-(2-(N--BOC-amino)ethylen)-amino purpuromycin] | > 128 | 0.5 (≈ 0.75 µM) | 0.13 (≈ 0.195 µM) | 0.06 (≈ 0.09 µM) | 0.06 (≈ 0.09 µM) | > 128 | > 128 | 0.06 (≈ 0.09 µM) | 2 | 0.13 (≈ 0.195 µM) | 0.13 (≈ 0.195 µM) |  | 0.13 (≈ 0.195 µM) | > 128 | 0.25 (≈ 0.375 µM) | 0.016 (≈ 0.024 µM) | 
8 | COC(=O)c1cc2cc3c(c(O)c2c(=O)o1)OC1(Cc2c(O)c4c(c(O)c2O1)C(=O)C(NCCN)=CC4=O)CC3O (centres unmarked) [Example 19, 7'-(2-aminoethylen)-amino purpuromycin trifluoroacetate] | > 128 | > 128 | 2 | 1 | 1 | > 128 |  | 1 | 8 | 1 | 1 |  | 2 | > 128 | 0.5 | 0.5 | MIC ([7]; ATCC881, Table 2, internal code 79, approx. 10^4 cfu/ml, Iso-Sensitest broth, 37° C., 20-24 h, air, read-out: MIC): > 128 µg/mL
9 | COC(=O)c1cc2cc3c(c(O)c2c(=O)o1)OC1(Cc2c(O)c4c(c(O)c2O1)C(=O)C(NCC(F)(F)F)=CC4=O)CC3O (centres unmarked) [Example 23, 7'-(2,2,2-trifluoroethylen)-amino purpuromycin] | > 128 | 0.06 (≈ 0.0991 µM) | 0.03 (≈ 0.0496 µM) | 0.016 (≈ 0.0264 µM) | 0.016 (≈ 0.0264 µM) | > 128 | > 128 | 0.06 (≈ 0.0991 µM) | 2 | 0.03 (≈ 0.0496 µM) | 0.016 (≈ 0.0264 µM) | 0.008 (≈ 0.0132 µM) | 0.13 (≈ 0.215 µM) | > 128 | 0.03 (≈ 0.0496 µM) |  | 
10 | COC(=O)c1cc2cc3c(c(O)c2c(=O)o1)OC1(CC3)Cc2c(O)c3c(c(O)c2O1)C(=O)C(N)=CC3=O (centres unmarked) [Example 30, 7'-Amino-γ-rubromycin] | > 128 | 0.06 (≈ 0.118 µM) | 0.03 (≈ 0.0591 µM) | 0.016 (≈ 0.0315 µM) | 0.016 (≈ 0.0315 µM) | > 128 | > 128 | 0.016 (≈ 0.0315 µM) | 1 |  | 0.016 (≈ 0.0315 µM) |  | 0.03 (≈ 0.0591 µM) |  |  | 0.016 (≈ 0.0315 µM) | MIC [12, 19]: 16 µg/mL (≈ 31.5 µM); MIC [14]: 16 µg/mL

— US5475010A, “7'-amino-naphthazarin antibiotic derivatives” (Gruppo Lepetit S.p.A., priority 1991, dated 1995)
